Experimental data as given in patent publication US20250059220A1, “SUBSTITUTED BENZOTHIOPHENE DERIVATIVES AND METHODS OF USE THEREOF” (Merck Sharp & Dohme LLC, priority 2021, published 2025).

Legend:
human PTPN2 (1-387) = human PTPN2 (1-387) (Homo sapiens (Human), UniProt P17706); assay: Human PTPN2 Biochemical Assay; settings: DiFMUP substrate
Procedure, shortened: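 Fluorogenic DiFMUP hydrolysis (1 h, room temperature, read ex 360/em 460 nm) after 30 min compound preincubation with PTPN2 residues 1-387, in 50 mM Tris pH 7.4, 150 mM NaCl, 0.01% Tween20, 0.5 mM DTT. Effects scaled between buffer and enzyme controls, 4-parameter fit gives EC50.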

human PTPN1 (1-435) = human PTPN1 (1-435) (Homo sapiens (Human), UniProt P18031); assay: Human PTPN1 Biochemical Assay; settings: DiFMUP substrate, read-out: PTP1B IC50
Procedure, shortened: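 Read-out is DiFMUP hydrolysis fluorescence (360 nm excitation, 460 nm emission) after 1 h at room temperature, following 30 min enzyme–compound preincubation.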

Chain of human PTPN1 (1-435) (P18031 whole entry): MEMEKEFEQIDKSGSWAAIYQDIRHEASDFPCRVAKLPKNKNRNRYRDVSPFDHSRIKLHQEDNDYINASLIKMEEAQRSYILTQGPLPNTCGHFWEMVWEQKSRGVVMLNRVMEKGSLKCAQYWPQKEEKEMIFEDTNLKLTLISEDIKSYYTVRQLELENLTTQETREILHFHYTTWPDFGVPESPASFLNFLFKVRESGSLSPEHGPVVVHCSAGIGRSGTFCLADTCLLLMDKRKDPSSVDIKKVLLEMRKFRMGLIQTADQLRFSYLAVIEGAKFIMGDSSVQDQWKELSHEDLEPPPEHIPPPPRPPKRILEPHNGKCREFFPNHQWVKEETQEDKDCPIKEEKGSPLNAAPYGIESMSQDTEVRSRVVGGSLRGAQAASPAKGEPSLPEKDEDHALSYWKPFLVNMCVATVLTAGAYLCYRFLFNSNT
Chain of human PTPN2 (1-387) (P17706 other isoform, or with tags, fused parts or gaps): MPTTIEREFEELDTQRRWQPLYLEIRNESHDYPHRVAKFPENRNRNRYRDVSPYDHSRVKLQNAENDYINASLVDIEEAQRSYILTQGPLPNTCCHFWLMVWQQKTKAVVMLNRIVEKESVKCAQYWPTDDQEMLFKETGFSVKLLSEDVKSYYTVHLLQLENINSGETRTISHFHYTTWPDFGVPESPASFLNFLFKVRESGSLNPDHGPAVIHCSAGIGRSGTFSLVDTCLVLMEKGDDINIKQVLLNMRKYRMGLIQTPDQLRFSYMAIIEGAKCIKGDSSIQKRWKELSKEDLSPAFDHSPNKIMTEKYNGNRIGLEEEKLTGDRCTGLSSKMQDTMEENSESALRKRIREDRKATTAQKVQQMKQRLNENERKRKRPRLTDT

Row | IC50 (human PTPN2 (1-387)) [nM] | IC50 (human PTPN1 (1-435)) [nM] | Compound
1 | 21.8 | 23.4 | NC(=O)c1cc(OCC2CC2(F)F)c2sc(C(F)(F)P(=O)(O)O)c(Br)c2c1 (centres unmarked) [Compound 315]
2 | 9580 | 7860 | CS(=O)(=O)CCCOc1cc(C(N)=O)cc2cc(C(F)(F)P(=O)(O)O)sc12 [Compound 453, ammonium ((5-carbamoyl-7-(3-(methylsulfonyl)propoxy)benzo[b]thiophen-2-yl)difluoromethyl)phosphonate]
3 | 7.83 | 7.9 | N#CCCNC(=O)c1cc(OCCCS(N)(=O)=O)c2sc(C(F)(F)P(=O)(O)O)c(Br)c2c1 [Compound 328]
4 | 60.3 | 62 | O=C(NCc1cccnn1)c1cc(OCCCCn2ccnc2)c2sc(C(F)(F)P(=O)(O)O)c(Br)c2c1 [Compound 265]
5 | 22.5 | 21.1 | NC(=O)c1cc(OCCC2CCNS2(=O)=O)c2sc(C(F)(F)P(=O)(O)O)c(Br)c2c1 (single isomer, unassigned) [Compound 461, (R or S)-((3-bromo-5-carbamoyl-7-(2-(1,1-dioxidoisothiazolidin-5-yl)ethoxy)benzo[b]thiophen-2-yl)difluoromethyl)phosphonic acid]
6 | 6750 | 5030 | O=C(N[C@H]1CC[C@@H](C(F)(F)F)CC1)c1ccc2sc(C(F)(F)P(=O)(O)O)c(Br)c2c1 [Compound 54]
7 | 12.2 | 26 | O=C(NCc1cccnn1)c1cc(OCCCc2ccncc2)c2sc(C(F)(F)P(=O)(O)O)c(Br)c2c1 [Compound 267]
8 | 6700 | 3590 | CS(=N)(=O)c1cc(OCCCC(F)(F)F)c2sc(C(F)(F)P(=O)(O)O)c(Br)c2c1 (centres unmarked) [Compound 414]
9 | 176 | 83 | NC(=O)c1cc(OCC2CC(F)(F)C2(F)F)c2sc(C(F)(F)P(=O)(O)O)c(Br)c2c1 (centres unmarked) [Compound 275]
10 | 719 | 516 | N#Cc1cccc(-c2cccc(NC(=O)c3ccc4sc(C(F)(F)P(=O)(O)O)c(Br)c4c3)c2)c1 [Compound 66]
11 | 4.87 | 11.9 | CS(=O)(=O)CCCOc1cc(C(N)=O)cc2c(C#N)c(C(F)(F)P(=O)(O)O)sc12 [Compound 421, ((5-carbamoyl-3-cyano-7-(3-(methylsulfonyl)propoxy)benzo[b]thiophen-2-yl)difluoromethyl)phosphonic acid]
12 | 3300 | 7090 | COc1ccc(CCC(C)NC(=O)c2ccc3sc(C(F)(F)P(=O)(O)O)c(Br)c3c2)cc1 (centres unmarked) [Compound 87]
13 | 28.1 | 29.9 | CCC(=O)CCCOc1cc(C(N)=O)cc2c(Br)c(C(F)(F)P(=O)(O)O)sc12 [Compound 332]

Row | Compound | IC50 (human PTPN2 (1-387)) [nM] | IC50 (human PTPN1 (1-435)) [nM]
14 | C[C@@H](NC(=O)c1ccc2sc(C(F)(F)P(=O)(O)O)c(Br)c2c1)c1cccnc1 [Compound 199] | 1710 | 1190
15 | Cn1cnc(CNC(=O)c2ccc3sc(C(F)(F)P(=O)(O)O)c(Br)c3c2)n1 [Compound 181] | 4100 | 2420
16 | N#Cc1cc(OCCCC(F)(F)F)c2sc(C(F)(F)P(=O)(O)O)c(Br)c2c1 [Compound 233, ((3-bromo-5-cyano-7-(4,4,4-trifluorobutoxy)benzo[b]thiophen-2-yl)difluoromethyl)phosphonic acid] | 146 | 77
